# Assay results: patent publication US7592467B2, “Inhibitors of prolyl endopeptidase” (Probiodrug AG, priority 2005, dated 2009)
# What was measured:
# [1] = molecular target: T1, Recombinant human prolyl oligopeptidase (Homo sapiens, UniProt P48147); test: Determination of IC50- and Ki-values of PEP-inhibitors (chromogenic substrate Z-Gly-Pro-pNA); format: biochemical; conditions: substrate Z-Gly-Pro-pNA 0.15 mM, HEPES buffer pH 7.6, 30° C.; n.i. = no inhibition
# T1 construct: made in house; host or cells: E. coli
# T1 sequence (P48147 1-710): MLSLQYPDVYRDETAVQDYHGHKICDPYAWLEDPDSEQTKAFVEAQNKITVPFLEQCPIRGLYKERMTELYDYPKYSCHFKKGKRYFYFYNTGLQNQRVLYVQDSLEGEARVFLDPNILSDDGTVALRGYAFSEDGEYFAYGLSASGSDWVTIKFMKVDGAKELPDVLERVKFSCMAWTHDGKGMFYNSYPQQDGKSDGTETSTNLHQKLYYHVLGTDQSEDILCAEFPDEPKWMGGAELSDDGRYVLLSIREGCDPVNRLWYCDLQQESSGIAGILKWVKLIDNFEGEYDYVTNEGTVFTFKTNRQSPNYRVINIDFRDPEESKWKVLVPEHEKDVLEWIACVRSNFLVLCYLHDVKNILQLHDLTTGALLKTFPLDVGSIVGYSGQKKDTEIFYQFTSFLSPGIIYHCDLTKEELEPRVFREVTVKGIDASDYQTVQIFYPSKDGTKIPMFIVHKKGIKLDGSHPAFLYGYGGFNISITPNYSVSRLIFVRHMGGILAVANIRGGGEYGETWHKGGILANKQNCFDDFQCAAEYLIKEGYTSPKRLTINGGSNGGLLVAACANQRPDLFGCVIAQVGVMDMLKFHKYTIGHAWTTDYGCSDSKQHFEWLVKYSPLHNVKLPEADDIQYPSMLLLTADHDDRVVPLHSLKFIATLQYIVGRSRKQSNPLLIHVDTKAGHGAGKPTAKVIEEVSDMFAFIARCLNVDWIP
# Method: Biological Evaluation, Determination of IC50- and Ki-Values of PEP-Inhibitors
# Recombinant human prolyl oligopeptidase was used for measurement. Recombinant expression was performed in E. coli under standard conditions as described elsewhere in the state of the art.
# For activity measurements the chromogenic substrate Z-Gly-Pro-pNA was used in HEPES buffer pH 7.6 containing 50 mM HEPES, 200 mM NaCl, 1 mM EDTA, 1 mM DTT, 0.006% Brij35. Measurements were carried out at 30° C. Release of pNA were monitored continuously at 405 nm.
# IC50 values were calculated using non-linear regression to a 4-parameter equation (Prism 4.0, GraphPad).
# For Ki determination 4 substrate (0.15 mM, 0.08 mM 0.04 mM, 0.02 mM) and 7 inhibitor concentrations in an appropriate range were used. Calculations were performed by multiple non-linear regression analysis to the equation for competitive inhibition using GraFit 5.0 Software (Erithacus Software).
# human glial U-343 cells = test: IL-6 ELISA, basal secretion of IL-6; format: cell-based; conditions: inhibitor 20 μM, 24 hours, serum-free medium, untreated control = 100%, read-out: Extracellular IL-6 concentration, % of untreated cells
# Method: To analyze basal secretion of IL-6, human glial U-343 cells were cultured in 6 well plates (1.5×10^6 cells/well, Greiner) and treated with specific PEP inhibitors as indicated (20 μM each) for 24 hours in serum-free D-MEM medium (invitrogen). Aliquots of 40 μl conditioned medium were used to quantify the amount of secreted IL-6 by an human-specific IL-6 ELISA (Biosource) following the manufacturer's instructions. All data were obtained in quadruplicate. For the calculation of the IL-6 concentration in the cell culture medium after PEP-inhibitor treatment, the basal IL-6 concentration of the cell culture medium of untreated cell samples was set to 100%. The results of the measurement of the IL-6 concentration with PEP-inhibitor treated cells are presented as % of the untreated cell samples.
# U-343 and SH-SY5Y cells = test: β-Amyloid ELISA, secreted β-amyloid peptides 1-40 and 1-42; format: cell-based; conditions: Homo sapiens, inhibitor 20 μM, 24 hours, conditioned medium, untreated cells = 100%, cell line and peptide (1-40/1-42) not given, read-out: Extracellular Aβ-concentration, % of control
# Method: The human glioma cell line, U-343 and the human neuroblastoma cell line, SH-SY5Y were maintained in Dulbecco's modified Eagle's medium (DMEM) containing 10% fetal bovine serum (Gibco BRL, Karlsruhe, Germany) and incubated at 37° C. in a 5% CO2 atmosphere. Culture media contained in general 60 μg/ml gentamycin (Gibco BRL, Karlsruhe, Germany).
# To quantify intracellular and extracellular concentrations of 0-amyloid peptides, 1-40 and 1-42, U-343 and SH-SY5Y cells were cultured in 6 well plates (1.5×10^6 cells/well) and treated with specific PEP inhibitors (20 μM each) for 24 hours. For quantitation of secreted β-amyloid peptides the conditioned medium was collected and concentrated by lyophylisation. Likewise, after determination of the cell numbers/well (casy cell counter I, Schärfe System, Reutlingen, Germany), cells were lyzed with cell extraction buffer (Biosource, Solingen, Germany) according to the manufacturer's protocol. The protein concentration was determined by the method of Bradford (1976). Aliquots of 100 μl were used to quantify β-amyloid peptides 1-40 and 1-42 in quadruplicate by ELISA (IBL, Hamburg, Germany) following the manufacturer's instructions. All obtained intracellular and extracellular concentrations were normalized to cell numbers and protein concentration, respectively.
# For the calculation of the concentration of β-amyloid peptides 1-40 and 1-42 in the cell culture medium after PEP-inhibitor treatment, the basal concentration of β-amyloid peptides 1-40 and 1-42 in the cell culture medium of untreated cell samples was set to 100%. The results of the measurement of the concentration of β-amyloid peptides 1-40 and 1-42 with PEP-inhibitor treated cells are presented as % of the untreated cell samples.
IC50 [1],Structure (SMILES),activity at 20 µM (human glial U-343 cells),activity at 20 µM (U-343 and SH-SY5Y cells)
n.i.,O=C(OCN1C(=O)c2ccccc2C1=O)c1ccccc1C(=O)c1cccs1 [Example 9],124%,113%
n.i.,COc1cccc(COC(=O)c2ccccc2C(=O)c2cccs2)c1 [Example 18],63.3%,106%
